From patent US20250320213A1, “Nitrogen-Containing Heterocyclic Compounds” (Pfizer Inc., priority 2024, published 2025)

Target: T1, STAT6 (Homo sapiens, UniProt P42226)
T1 construct: stably transfected HaCaT keratinocyte cell line, which expresses NanoLuc luciferase reporter gene under the transcriptional control of the STAT6 responsive promoter; endogenous in cells; host or cells: HaCaT keratinocyte reporter cell line (stably transfected with a NanoLuc reporter)
T1 sequence (P42226 1-847): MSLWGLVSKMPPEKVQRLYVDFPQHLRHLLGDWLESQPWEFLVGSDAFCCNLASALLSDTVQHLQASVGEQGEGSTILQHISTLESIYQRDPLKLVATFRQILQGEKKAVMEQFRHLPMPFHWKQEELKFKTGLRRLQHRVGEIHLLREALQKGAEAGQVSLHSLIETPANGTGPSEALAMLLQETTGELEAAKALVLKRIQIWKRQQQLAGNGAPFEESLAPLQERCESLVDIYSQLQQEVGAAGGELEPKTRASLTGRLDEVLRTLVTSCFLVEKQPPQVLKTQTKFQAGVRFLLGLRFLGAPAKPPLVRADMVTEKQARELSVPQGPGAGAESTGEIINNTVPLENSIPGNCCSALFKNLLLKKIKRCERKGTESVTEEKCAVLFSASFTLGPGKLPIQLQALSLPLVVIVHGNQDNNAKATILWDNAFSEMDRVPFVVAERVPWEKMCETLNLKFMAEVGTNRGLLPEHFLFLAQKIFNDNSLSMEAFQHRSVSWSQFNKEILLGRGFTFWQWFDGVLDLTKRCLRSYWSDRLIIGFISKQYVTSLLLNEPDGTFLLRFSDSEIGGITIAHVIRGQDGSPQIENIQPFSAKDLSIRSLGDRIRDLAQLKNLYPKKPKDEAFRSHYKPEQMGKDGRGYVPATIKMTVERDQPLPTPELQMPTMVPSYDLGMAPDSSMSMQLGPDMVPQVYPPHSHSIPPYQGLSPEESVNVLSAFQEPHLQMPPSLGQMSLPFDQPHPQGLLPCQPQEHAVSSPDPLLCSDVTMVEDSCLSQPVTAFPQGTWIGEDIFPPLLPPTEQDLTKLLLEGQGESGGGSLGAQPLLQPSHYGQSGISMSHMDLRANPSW
Assay: STAT6 Reporter Luciferase Assay (IL-13 stimulated HaCaT keratinocyte NanoLuc reporter cells)
Format: cell-based
Conditions: IL-13 stimulated HaCaT STAT6 NanoLuc reporter cells; read-out: Reporter EC50
In short: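 Compounds were tested as 11-point, 4-fold series in duplicate, applied for 2 h at 37 °C in low-serum (2% FBS) DMEM. The cells were a stable HaCaT line with NanoLuc under a STAT6-responsive IL-13Ra2 promoter. After 4 h with 0.12 nM IL-13, Nano-Glo luminescence was measured.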

EC50 [nM] | Compound
32 | Cc1nn(C)c2c1CN(C(=O)c1ccc(N3CCc4c(c(C(=O)NCc5ccc(NC(=O)N(C)C)cc5)nn4C(C)C)C3)nc1)C2 [Example 401, 5-(5-(1,3-dimethyl-1,4,5,6-tetrahydropyrrolo[3,4-c]pyrazole-5-carbonyl)pyridin-2-yl)-N-(4-(3,3-dimethylureido)benzyl)-1-isopropyl-4,5,6,7-tetrahydro-1H-pyrazolo[4,3-c]pyridine-3-carboxamide]
3 | CC(C)n1nc(C(=O)NCc2ccc(NC(=O)N(C)C)cc2)c2c1CCN(c1ccc(C(=O)N3Cc4ncsc4C3)cn1)C2 [Example 402, 5-(5-(5,6-dihydro-4H-pyrrolo[3,4-d]thiazole-5-carbonyl)pyridin-2-yl)-N-(4-(3,3-dimethylureido)benzyl)-1-isopropyl-4,5,6,7-tetrahydro-1H-pyrazolo[4,3-c]pyridine-3-carboxamide]
12 | CC(C)n1nc(C(=O)NCc2ccc(NC(=O)N(C)C)cc2)c2c1CCN(c1ccc(C(=O)N3CCc4scnc4C3)cn1)C2 [Example 403, N-(4-(3,3-dimethylureido)benzyl)-1-isopropyl-5-(5-(4,5,6,7-tetrahydrothiazolo[4,5-c]pyridine-5-carbonyl)pyridin-2-yl)-4,5,6,7-tetrahydro-1H-pyrazolo[4,3-c]pyridine-3-carboxamide]
40 | Cc1cnc2n1CCN(C(=O)c1ccc(N3CCc4c(c(C(=O)NCc5ccc(NC(=O)N(C)C)cc5)nn4C(C)C)C3)nc1)C2 [Example 404, N-(4-(3,3-dimethylureido)benzyl)-1-isopropyl-5-(5-(3-methyl-5,6,7,8-tetrahydroimidazo[1,2-a]pyrazine-7-carbonyl)pyridin-2-yl)-4,5,6,7-tetrahydro-1H-pyrazolo[4,3-c]pyridine-3-carboxamide]
159 | CC(C)n1nc(C(=O)NCc2ccc(NC(=O)N(C)C)cc2)c2c1CCN(c1ccc(C(=O)N3CCc4ncn(C)c4C3)cn1)C2 [Example 405, N-(4-(3,3-dimethylureido)benzyl)-1-isopropyl-5-(5-(3-methyl-4,5,6,7-tetrahydro-3H-imidazo[4,5-c]pyridine-5-carbonyl)pyridin-2-yl)-4,5,6,7-tetrahydro-1H-pyrazolo[4,3-c]pyridine-3-carboxamide]
11 | Cc1nc2c(s1)CCN(C(=O)c1ccc(N3CCc4c(c(C(=O)NCc5ccc(NC(=O)N(C)C)cc5)nn4C(C)C)C3)nc1)C2 [Example 406, N-(4-(3,3-dimethylureido)benzyl)-1-isopropyl-5-(5-(2-methyl-4,5,6,7-tetrahydrothiazolo[4,5-c]pyridine-5-carbonyl)pyridin-2-yl)-4,5,6,7-tetrahydro-1H-pyrazolo[4,3-c]pyridine-3-carboxamide]
39 | CC(C)n1nc(C(=O)NCc2ccc(NC(=O)N(C)C)cc2)c2c1CCN(c1ccc(C(=O)N3Cc4cncnc4C3)cn1)C2 [Example 408, 5-(5-(6,7-dihydro-5H-pyrrolo[3,4-d]pyrimidine-6-carbonyl)pyridin-2-yl)-N-(4-(3,3-dimethylureido)benzyl)-1-isopropyl-4,5,6,7-tetrahydro-1H-pyrazolo[4,3-c]pyridine-3-carboxamide]
24 | Cc1nc2c(n1C)CCN(C(=O)c1ccc(N3CCc4c(c(C(=O)NCc5ccc(NC(=O)N(C)C)cc5)nn4C(C)C)C3)nc1)C2 [Example 409, 5-(5-(1,2-dimethyl-4,5,6,7-tetrahydro-1H-imidazo[4,5-c]pyridine-5-carbonyl)pyridin-2-yl)-N-(4-(3,3-dimethylureido)benzyl)-1-isopropyl-4,5,6,7-tetrahydro-1H-pyrazolo[4,3-c]pyridine-3-carboxamide]
15 | Cc1cnc2c(c1)CN(C(=O)c1ccc(N3CCc4c(c(C(=O)NCc5ccc(NC(=O)N(C)C)cc5)nn4C(C)C)C3)nc1)CC2 [Example 410, N-(4-(3,3-dimethylureido)benzyl)-1-isopropyl-5-(5-(3-methyl-5,6,7,8-tetrahydro-1,6-naphthyridine-6-carbonyl)pyridin-2-yl)-4,5,6,7-tetrahydro-1H-pyrazolo[4,3-c]pyridine-3-carboxamide]
8 | CC(C)n1nc(C(=O)NCc2ccc(NC(=O)N(C)C)cc2)c2c1CCN(c1ccc(C(=O)N3Cc4ccc(C#N)cc4C3)cn1)C2 [Example 411, 5-(5-(5-cyanoisoindoline-2-carbonyl)pyridin-2-yl)-N-(4-(3,3-dimethylureido)benzyl)-1-isopropyl-4,5,6,7-tetrahydro-1H-pyrazolo[4,3-c]pyridine-3-carboxamide]
396 | CC(C)n1nc(C(=O)NCc2ccc(NC(=O)N(C)C)cc2)c2c1CCN(c1ccc(C(=O)N3CCc4cnc(O)cc4C3)cn1)C2 [Example 412, N-(4-(3,3-dimethylureido)benzyl)-5-(5-(7-hydroxy-1,2,3,4-tetrahydro-2,6-naphthyridine-2-carbonyl)pyridin-2-yl)-1-isopropyl-4,5,6,7-tetrahydro-1H-pyrazolo[4,3-c]pyridine-3-carboxamide]
82 | Cc1nc2n(n1)CCN(C(=O)c1ccc(N3CCc4c(c(C(=O)NCc5ccc(NC(=O)N(C)C)cc5)nn4C(C)C)C3)nc1)C2 [Example 413, N-(4-(3,3-dimethylureido)benzyl)-1-isopropyl-5-(5-(2-methyl-5,6,7,8-tetrahydro-[1,2,4]triazolo[1,5-a]pyrazine-7-carbonyl)pyridin-2-yl)-4,5,6,7-tetrahydro-1H-pyrazolo[4,3-c]pyridine-3-carboxamide]
66 | Cc1nc2n(c1C)CCN(C(=O)c1ccc(N3CCc4c(c(C(=O)NCc5ccc(NC(=O)N(C)C)cc5)nn4C(C)C)C3)nc1)C2 [Example 414, 5-(5-(2,3-dimethyl-5,6,7,8-tetrahydroimidazo[1,2-a]pyrazine-7-carbonyl)pyridin-2-yl)-N-(4-(3,3-dimethylureido)benzyl)-1-isopropyl-4,5,6,7-tetrahydro-1H-pyrazolo[4,3-c]pyridine-3-carboxamide]
3 | CC(C)n1nc(C(=O)NCc2ccc(NC(=O)N(C)C)cc2)c2c1CCN(c1ccc(C(=O)N3Cc4cccc(C#N)c4C3)cn1)C2 [Example 415, 5-(5-(4-cyanoisoindoline-2-carbonyl)pyridin-2-yl)-N-(4-(3,3-dimethylureido)benzyl)-1-isopropyl-4,5,6,7-tetrahydro-1H-pyrazolo[4,3-c]pyridine-3-carboxamide]
29 | CC(C)n1nc(C(=O)NCc2ccc(NC(=O)N(C)C)cc2)c2c1CCN(c1ccc(C(=O)N3CCc4c(cnn4C)C3)cn1)C2 [Example 416, N-(4-(3,3-dimethylureido)benzyl)-1-isopropyl-5-(5-(1-methyl-4,5,6,7-tetrahydro-1H-pyrazolo[4,3-c]pyridine-5-carbonyl)pyridin-2-yl)-4,5,6,7-tetrahydro-1H-pyrazolo[4,3-c]pyridine-3-carboxamide]
17 | CC(C)n1nc(C(=O)NCc2ccc(NC(=O)N(C)C)cc2)c2c1CCN(c1ccc(C(=O)N3CCc4cccnc4C3)cn1)C2 [Example 417, N-(4-(3,3-dimethylureido)benzyl)-1-isopropyl-5-(5-(5,6,7,8-tetrahydro-1,7-naphthyridine-7-carbonyl)pyridin-2-yl)-4,5,6,7-tetrahydro-1H-pyrazolo[4,3-c]pyridine-3-carboxamide]
61 | Cc1nn(C)c2c1CCN(C(=O)c1ccc(N3CCc4c(c(C(=O)NCc5ccc(NC(=O)N(C)C)cc5)nn4C(C)C)C3)nc1)C2 [Example 418, 5-(5-(1,3-dimethyl-4,5,6,7-tetrahydro-1H-pyrazolo[3,4-c]pyridine-6-carbonyl)pyridin-2-yl)-N-(4-(3,3-dimethylureido)benzyl)-1-isopropyl-4,5,6,7-tetrahydro-1H-pyrazolo[4,3-c]pyridine-3-carboxamide]
44 | Cc1cnn2c1CN(C(=O)c1ccc(N3CCc4c(c(C(=O)NCc5ccc(NC(=O)N(C)C)cc5)nn4C(C)C)C3)nc1)CC2 [Example 419, N-(4-(3,3-dimethylureido)benzyl)-1-isopropyl-5-(5-(3-methyl-4,5,6,7-tetrahydropyrazolo[1,5-a]pyrazine-5-carbonyl)pyridin-2-yl)-4,5,6,7-tetrahydro-1H-pyrazolo[4,3-c]pyridine-3-carboxamide]
18 | CC(C)n1nc(C(=O)NCc2ccc(NC(=O)N(C)C)cc2)c2c1CCN(c1ccc(C(=O)N3CCc4c(ncn4C)C3)cn1)C2 [Example 421, N-(4-(3,3-dimethylureido)benzyl)-1-isopropyl-5-(5-(1-methyl-4,5,6,7-tetrahydro-1H-imidazo[4,5-c]pyridine-5-carbonyl)pyridin-2-yl)-4,5,6,7-tetrahydro-1H-pyrazolo[4,3-c]pyridine-3-carboxamide]
